# Test results: patent US10532068B2, “Dual molecular delivery of oligonucleotides and peptide containing conjugates” (Merck Sharp & Dohme Corp., priority 2013, dated 2020)
# Strand notation (5' to 3'): a small letter for the sugar, then the base; units joined by * are phosphorothioate-linked, units joined directly phosphodiester-linked; [ ] holds rarer units or linkages, { } end groups; capitals alone tell only the bases. {NH2C6-invAb} = cap: inverted abasic residue carrying an aminohexyl phosphate (attachment handle); [invAb] = inverted abasic unit; m = 2'-O-methyl; f = 2'-fluoro
# How the values were obtained:
# CTNNB1 = experiment: In vivo evaluation in mice: liver mRNA knockdown measurement (TaqMan qPCR); design: species or system CD-1 mice; conditions: for time course of mRNA KD in DMD format compared to 5-fold higher dose of siRNA-III alone: FIG. 4, sequential dosing, peptide 15 min after siRNA
# Description: (§1) Female CD-1 mice (Charles River) were injected in accordance with either a sequential dosing paradigm or a co-dosing paradigm. In the sequential dosing paradigm, the targeted siRNA (SCE) is dosed at t=0 and the targeted peptide is separately dosed up to 2 hr before the SCE (−2 hr) or up to 24 hr after the SCE (+24 hr). In the co-dosing paradigm, the SCE and peptides are co-formulated and dosed together in the same formulation as a single injection at t=0. The mice were dosed either by intravenous (i.v.) or subcutaneous (s.c.) injection of SCE and peptide. For the i.v. doses, the compounds were injected into the tail vein of the mice. For the s.c. doses, the compounds were injected in the subcutaneous space on the back of the mouse between the shoulder blades. At the indicated harvest times (measured from t=0 when the siRNA was dosed, regardless of when the peptide was dosed), the animals were sacrificed and 3 mm liver punches were collected, preserved in RNAlater (Ambion), and stored at 4° C. Separate 5 mm liver punches were collected, placed in 96-well plates, frozen on dry ice, and stored at −80° C. until use.
# The 3 mm liver punches were removed from RNAlater and homogenized in Trizol (Invitrogen) using a bead mill tissue lyser (Qiagen); disruption was performed for two 5-minute cycles at 30 Hz. RNA extraction was performed using 1-bromo-2-chloropropane (Acros Organics) and total RNA was isolated from the aqueous phase using the MagMax RNA isolation method (Ambion). […] TaqMan qPCR analysis was performed with an ABI 7900 Real-Time PCR System using TaqMan Fast Advanced Master Mix (Applied Biosystems). All TaqMan probes and primers for CTNNB1 and PPIB (housekeeping gene) were purchased from Applied Biosystems as pre-validated gene expression assays. Results are calculated by the comparative Ct method, where the difference between the CTNNB1 Ct value and the PPIB Ct value (ΔCt) is calculated and then further normalized relative to the PBS control by taking a second difference (ΔΔCt), as described previously (1).
# [1] = siRNA metabolic stability (FIG. 6 legend); conditions: order siRNA-I>siRNA-V>siRNA-VI
# RISC = biological target: T1, RISC (Mus musculus, UniProt Q8CJG0); experiment: Quantitation of siRNA bound to RISC in mouse liver (Ago2 immunoprecipitation, stem-loop qPCR); type: in vivo, CD-1 mice; conditions: FIG. 5
# T1 construct: from tissue; host or cells: liver of female CD-1 mice
# T1 sequence (Q8CJG0 whole entry): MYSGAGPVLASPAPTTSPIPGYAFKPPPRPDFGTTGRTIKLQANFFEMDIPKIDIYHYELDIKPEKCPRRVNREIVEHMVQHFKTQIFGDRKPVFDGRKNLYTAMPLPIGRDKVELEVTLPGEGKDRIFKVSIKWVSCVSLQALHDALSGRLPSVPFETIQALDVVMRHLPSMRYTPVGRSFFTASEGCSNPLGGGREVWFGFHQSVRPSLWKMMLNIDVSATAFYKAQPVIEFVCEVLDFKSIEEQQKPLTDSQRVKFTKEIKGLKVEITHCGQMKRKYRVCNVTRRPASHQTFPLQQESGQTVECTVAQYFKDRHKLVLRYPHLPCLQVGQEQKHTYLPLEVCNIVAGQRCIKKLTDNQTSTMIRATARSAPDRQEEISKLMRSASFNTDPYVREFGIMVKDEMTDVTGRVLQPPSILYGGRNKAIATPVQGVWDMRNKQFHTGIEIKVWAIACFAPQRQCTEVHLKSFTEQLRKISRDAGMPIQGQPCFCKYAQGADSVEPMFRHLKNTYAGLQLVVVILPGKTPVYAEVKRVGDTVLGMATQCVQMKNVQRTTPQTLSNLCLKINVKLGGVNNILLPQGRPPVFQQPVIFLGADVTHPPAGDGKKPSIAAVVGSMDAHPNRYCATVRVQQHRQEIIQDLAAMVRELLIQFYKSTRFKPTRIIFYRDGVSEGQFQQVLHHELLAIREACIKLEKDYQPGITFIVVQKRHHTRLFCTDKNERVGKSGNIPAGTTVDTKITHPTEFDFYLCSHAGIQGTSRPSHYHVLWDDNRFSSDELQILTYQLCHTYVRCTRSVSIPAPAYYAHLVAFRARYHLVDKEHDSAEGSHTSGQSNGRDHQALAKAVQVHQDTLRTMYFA
# Description: as §1, with “use. […]” for “use.”
Substance,time course of mRNA KD in DMD format compared to 5-fold higher dose of siRNA-III alone (CTNNB1),"effect of the timing of peptide dose on activity (CTNNB1; FIG. 6, peptide within 2 hr before up to 24 hr after siRNA dose)",siRNA stability (metabolic stability) [1],time course of RISC loading (RISC),"activity (KD) (CTNNB1; FIG. 6, peptide dose times within 2 hr (before or after) the siRNA) [%]"
"siRNA-I: CTNNB1 ds siRNA, passenger SEQ ID NO 1803, guide SEQ ID NO 1804 (sense {NH2C6-invAb}-mCmUfGmUmUfGfGfAmUmUfGfAmUmUmCfGfAfAfAmU*mU[invAb]; guide mU*fU*mU*fCmGfAmAfUmCfAmAfUmCfCmAfAmCfAmGmU*mU; targeting ligand attached via linker, site not given here)",faster and greater KD,does not significantly change the activity,highly stable,,
"siRNA-III: CTNNB1 ds siRNA, passenger SEQ ID NO 1803, guide SEQ ID NO 1806 (vinylPmoeT) (sense CUGUUGGAUUGAUUCGAAAUU; guide TUUCGAAUCAAUCCAACAGUU; vinylphosphonate MOE T; (1)..(1) aminohexyl phosphate inverted abasic cap; (1)..(2) 2′-O-methyl; (3)..(3) 2′-deoxy-2′-fluoro; (4)..(5) 2′-O-methyl; (6)..(8) 2′-deoxy-2′-fluoro; (9)..(10) 2′-O-methyl; (11)..(12) 2′-deoxy-2′-fluoro; (13)..(15) 2′-O-methyl; (16)..(19) 2′-deoxy-2′-fluoro; (20)..(21) 2′-O-methyl; (20)..(21) phosphorothioate internucleotide linkage; (21)..(21) inverted abasic cap; (1)..(1) terminal vinyl phosphate; (1)..(1) 2′-methoxyethoxy; (2)..(21) ribonucleotide unmodified or modified as described for this sequence; (2)..(2) 2′-deoxy-2′-fluoro; (3)..(3) 2′-O-methyl; (4)..(4) …)",faster and greater KD,,,faster RISC loading,
"siRNA-V: CTNNB1 ds siRNA, passenger SEQ ID NO 1803, guide SEQ ID NO 1808 (sense {NH2C6-invAb}-mCmUfGmUmUfGfGfAmUmUfGfAmUmUmCfGfAfAfAmU*mU[invAb]; guide mUfUmUfCmGfAmAfUmCfAmAfUmCfCmAfAmCfAmGmU*mU)",,,moderately stable,,~25
